# In PMC6563033, “Purification and Characterization of Antioxidant Peptides Derived from Protein Hydrolysate of the Marine Bivalve Mollusk Tergillarca granosa” (Marine Drugs, 2019):
# Marks after values point to notes of the source that are not given here. No end group written: not given here.
# What was measured:
# Type in all cases: biochemical
# [1] = ABTS cation radical scavenging activity; conditions: isolated APs; 5 mM PBS pH 7.4, 10 min, absorbance 734 nm; mean ± SD, n = 3
# Description: (§1) The DPPH radical, hydroxyl radical, superoxide anion radical, and ABTS cation radical scavenging activities were measured according to the previous methods. The results were expressed as a half elimination ratio (EC50) defined as the concentration by which a sample caused a 50% decrease of the initial concentration of DPPH radical, hydroxyl radical, superoxide anion radical, and ABTS cation radical, respectively, and the calculation method of EC50 was according to linear relationship of radical scavenging rates and concentrations of samples [6, 26].
# The ABTS radical cation was generated by mixing ABTS stock solution (7 mM) with potassium persulphate (2.45 mM). The mixture was left in the dark at room temperature for 16 h. The ABTS radical solution was diluted in 5 mM PBS pH 7.4, to an absorbance of 0.70 ± 0.02 at 734 nm. One milliliter of diluted ABTS radical solution was mixed with one milliliter of different concentrations of samples. 10 min later, the absorbance was measured at 734 nm against the corresponding blank. The ABTS scavenging activity of samples was calculated using the following equation: ABTS scavenging activity (%) = [(Acontrol − Asample)/Acontrol] × 100% (5) where Acontrol is the absorbance without sample and Asample is the absorbance with sample.
# [2] = Superoxide anion radical scavenging activity (NBT/NADH/PMS); conditions: isolated APs; 25 °C, 5 min, absorbance 560 nm; mean ± SD, n = 3
# Description: as §1
# The superoxide anions were generated in 1 mL of nitrotetrazolium blue chloride (2.52 mM), 1 mL of nicotinamide adenine dinucleotide hydride (NADH) ([…]) and 1 mL of different sample concentrations. The reaction was initiated by adding 1 ml of phenazine methosulphate solution (120 μM) to the reaction mixture. The absorbance was measured at 560 nm against the corresponding blank after 5 min incubation at 25 °C. The superoxide anion radical scavenging capacity was calculated using the following equation: Superoxide anion radical scavenging activity (%) = [(Acontrol − Asample)/Acontrol] × 100% (4) where Acontrol is the absorbance without sample and Asample is the absorbance with sample.
# [3] = Hydroxyl radical scavenging activity (1,10-phenanthroline/FeSO4/H2O2); conditions: isolated APs; 37 °C, 60 min, absorbance 536 nm; mean ± SD, n = 3
# Description: as §1
# First, 1.0 mL of a 1.87 mM 1,10-phenanthroline solution and 2.0 mL of the sample were added to a screw-capped tube and mixed. Then, 1.0 mL of a FeSO4·7H2O solution (1.87 mM) was added to the mixture. The reaction was initiated by adding 1.0 mL of H2O2 (0.03%, v/v). After being incubated at 37 °C for 60 min in a water bath, the absorbance of the reaction mixture was measured at 536 nm against a reagent blank. […] The hydroxyl radical scavenging activity was calculated using the following formula: Hydroxyl radical scavenging activity (%) = [(As − An)/(Ab − An)] × 100% (3) where As, An, and Ab are the absorbance values determined at 536 nm of the sample, the negative control, and the blank after the reaction, respectively.
# [4] = DPPH radical scavenging activity; conditions: isolated APs; 0.02% ethanolic DPPH; EC50 from linear relation of scavenging rate and concentration; mean ± SD, n = 3
# Description: as §1
# Two millilitres of samples consisting of DW and different concentrations of the analytes were placed in cuvettes, and 500 μL of an ethanolic solution of DPPH (0.02%) and 1.0 mL of ethanol were added. A control sample containing the DPPH solution without the sample was also prepared. In the blank, the DPPH solution was substituted with ethanol. The antioxidant activity of the sample was evaluated using the inhibition percentage of the DPPH radical with the following equation: DPPH radical scavenging activity (%) = (A0 + Ab − A)/A0 × 100% (2) where A is the absorbance rate of the sample, A0 is the control group absorbance, and Ab is the blank absorbance.
substance,measurement,setting,value
"WIDPDG [TGP-2, antioxidant peptide from blood cockle (T. granosa) protein hydrolysate]",Half Elimination Ratio (EC50) ABTS Cation Radical,[1],2.56 ± 0.23 ^b mg/mL
same,Half Elimination Ratio (EC50) Superoxide Anion Radical,[2],2.49 ± 0.17 ^b mg/mL
same,Half Elimination Ratio (EC50) Hydroxyl Radical,[3],1.54 ± 0.11 ^b mg/mL
same,Half Elimination Ratio (EC50) DPPH Radical,[4],1.82 ± 0.16 ^c mg/mL
